We go through 2 molecules from the NIST ThermoML archive (doi:10.1016/j.jct.2014.12.004).

The conditions of the series: Crystal; DTA.

± gives the expanded uncertainty stated by the source.

Take `O=c1c2ccccc2nc2n1CCc1c-2[nH]c2ccccc12` [Rutecarpine]: the Normal melting temperature was determined as 259.1 ± 0.4 °C.
Then `CN1c2ccccc2C(=O)N2CCc3c([nH]c4ccccc34)[C@H]21` [evodiamine], with 275.1 ± 0.4 °C.
